# Source: patent USRE39616E1, “Aminoindan derivatives” (priority 1996, dated 2007)
# Structures can show the parent of a compound that is named as a salt. Where two headings read alike, the source gives them in different places.
# Key:
# MAO-A [1] = target: T1, MAO-A (Mus musculus, UniProt Q64133); test: Inhibition of MAO activity ex vivo (brain); assay type: in vivo, mice; settings: mice, brain tissue
# T1 construct: from tissue; host or cells: mouse brain
# T1 sequence (Q64133 1-526): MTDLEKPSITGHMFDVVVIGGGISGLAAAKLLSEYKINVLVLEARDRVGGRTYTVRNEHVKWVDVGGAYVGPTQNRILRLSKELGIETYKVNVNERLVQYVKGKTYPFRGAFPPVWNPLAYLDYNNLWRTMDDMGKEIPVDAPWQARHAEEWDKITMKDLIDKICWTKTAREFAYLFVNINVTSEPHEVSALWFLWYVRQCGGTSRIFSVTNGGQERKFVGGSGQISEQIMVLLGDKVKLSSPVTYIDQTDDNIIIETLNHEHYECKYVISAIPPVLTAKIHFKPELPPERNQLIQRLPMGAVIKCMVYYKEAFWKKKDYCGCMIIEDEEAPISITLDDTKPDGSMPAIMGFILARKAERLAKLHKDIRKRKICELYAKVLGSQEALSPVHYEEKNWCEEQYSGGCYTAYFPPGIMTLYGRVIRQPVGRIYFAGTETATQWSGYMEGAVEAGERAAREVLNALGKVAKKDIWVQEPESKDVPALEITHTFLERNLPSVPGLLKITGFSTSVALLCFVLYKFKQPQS
# Procedure: (§1) Substrate concentrations used were 50 μM (PEA) and 1 mM (5-HT).
# (§2) Male Sabra mice, weighing 45-50 g were injected with test compound solutions (prepared in 0.9% saline). Each dose was administered to two or three mice. The mice were sacrificed two hours after drug administration or at a time corresponding to the peak AChE inhibition time (see Table 11). The brain and liver were rapidly dissected and stored in appropriate vials on ice. The tissues were weighed, diluted to ½ in sucrose 0.3M and stored at −20° C. before performance of the MAO assay described above. The results given in Table 11 relate to measurements made on brain tissue only.
# MAO-B = target: T2, MAO-B (Mus musculus, UniProt Q8BW75); test: Inhibition of MAO activity ex vivo (brain); assay type: in vivo, mice; settings: mice, brain tissue
# T2 construct: from tissue; host or cells: mouse brain
# T2 sequence (Q8BW75 1-520): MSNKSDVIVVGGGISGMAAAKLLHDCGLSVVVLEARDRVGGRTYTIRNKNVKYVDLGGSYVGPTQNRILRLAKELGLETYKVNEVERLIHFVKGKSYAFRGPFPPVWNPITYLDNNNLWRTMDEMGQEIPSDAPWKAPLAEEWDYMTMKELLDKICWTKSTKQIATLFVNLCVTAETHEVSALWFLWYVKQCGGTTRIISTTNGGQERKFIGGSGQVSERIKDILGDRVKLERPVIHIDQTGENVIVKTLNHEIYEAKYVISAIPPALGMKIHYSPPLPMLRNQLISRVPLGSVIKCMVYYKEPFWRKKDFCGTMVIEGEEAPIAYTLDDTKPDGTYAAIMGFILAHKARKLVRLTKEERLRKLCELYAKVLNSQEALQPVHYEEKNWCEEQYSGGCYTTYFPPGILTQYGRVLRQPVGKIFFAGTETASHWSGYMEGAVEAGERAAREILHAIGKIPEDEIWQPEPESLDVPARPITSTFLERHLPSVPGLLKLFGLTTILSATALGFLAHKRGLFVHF
# Procedure: as §1, §2
# MAO-A [2] = target: T3, MAO-A (Rattus norvegicus, UniProt P21396); test: Inhibition of MAO activity in vitro, 5-HT as substrate; assay type: biochemical; parameters: The MAO enzyme source was a homogenate of rat brain in 0.3M sucrose; from tissue; host or cells: rat brain homogenate, 600 g supernatant; settings: 5-HT substrate
# T3 sequence (P21396 1-526): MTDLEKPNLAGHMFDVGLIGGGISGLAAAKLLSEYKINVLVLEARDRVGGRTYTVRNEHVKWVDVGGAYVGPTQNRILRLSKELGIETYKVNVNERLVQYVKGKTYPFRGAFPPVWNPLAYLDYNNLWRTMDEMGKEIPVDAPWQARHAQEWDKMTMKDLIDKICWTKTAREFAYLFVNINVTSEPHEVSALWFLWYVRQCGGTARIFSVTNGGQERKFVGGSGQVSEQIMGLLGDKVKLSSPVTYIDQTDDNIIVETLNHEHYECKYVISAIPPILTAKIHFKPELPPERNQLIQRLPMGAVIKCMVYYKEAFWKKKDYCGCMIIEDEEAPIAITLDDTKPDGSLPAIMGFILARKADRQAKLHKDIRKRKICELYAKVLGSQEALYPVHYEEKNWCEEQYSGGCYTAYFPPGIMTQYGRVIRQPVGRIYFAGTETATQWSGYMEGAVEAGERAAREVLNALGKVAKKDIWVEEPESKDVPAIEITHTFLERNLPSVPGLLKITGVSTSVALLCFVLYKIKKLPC
# Procedure: as §1
# [3] = target: T4, Human erythrocyte acetylcholinesterase (Homo sapiens, UniProt P22303); test: biochemical; assay type: biochemical
# T4 construct: Human erythrocyte acetylcholinesterase (type XIII, Sigma Israel); purchased Sigma Israel type XIII; host or cells: human erythrocytes
# Procedure: Human erythrocyte acetylcholinesterase (type XIII, Sigma Israel), was prepared in a stock solution of 1 U/ml, containing Triton (1%) and bovine serum albumin (0.05%) in phosphate buffer (pH 8). The enzyme (0.05U) was incubated with 3-5 different concentrations of test compound (in triplicate) for periods of from 15 to 60 minutes at 37° C. […] The percentage inhibition of AChE by each concentration of drug is calculated by comparison with that of enzyme in the absence of drug.
# mice = settings: mice, within 6 hours after administration
# Procedure: Therapeutic Ratio was calculated as LD50 divided by ED50 of ex vivo acetylcholine esterase inhibition.
# whole brain AChE = target: T5, whole brain AChE (Mus musculus, UniProt P21836); settings: for AChE Inhibition Ex vivo ED50 (AC): mice, whole brain, at peak of activity
# T5 sequence (P21836 32-614): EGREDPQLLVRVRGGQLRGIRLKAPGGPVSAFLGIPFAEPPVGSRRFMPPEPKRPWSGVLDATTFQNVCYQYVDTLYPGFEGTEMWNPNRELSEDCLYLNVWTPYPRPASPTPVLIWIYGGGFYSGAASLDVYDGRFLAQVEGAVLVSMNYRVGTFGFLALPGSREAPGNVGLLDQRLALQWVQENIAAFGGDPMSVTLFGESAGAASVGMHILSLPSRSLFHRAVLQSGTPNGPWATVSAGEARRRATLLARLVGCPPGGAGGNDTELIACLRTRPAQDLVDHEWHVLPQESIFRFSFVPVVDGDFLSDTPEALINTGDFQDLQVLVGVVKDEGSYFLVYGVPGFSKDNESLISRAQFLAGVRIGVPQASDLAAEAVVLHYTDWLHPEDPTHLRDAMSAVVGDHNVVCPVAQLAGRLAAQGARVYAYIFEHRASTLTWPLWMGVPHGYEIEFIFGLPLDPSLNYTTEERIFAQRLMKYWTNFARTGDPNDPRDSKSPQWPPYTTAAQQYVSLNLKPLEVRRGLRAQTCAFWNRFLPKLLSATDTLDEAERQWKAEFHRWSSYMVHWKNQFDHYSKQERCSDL
# Procedure: Test drugs or saline were administered sub-cutaneously to male mice (Sabra strain, 28-35 g). […] The mice were sacrificed 15, 30, 50, 70, 90, 120 or 180 minutes after drug administration, the brains rapidly removed (minus cerebellum), weighed and homogenized in 0.1 M phosphate buffer, pH 8.0, containing Triton (1 mg/100 g tissue) and centrifuged to remove cell debris. Aliquots (25 μl) of the supernatant were then incubated with acetylthiocholine and DTNB. AChE activity was measured as described above. The % inhibition of whole brain AChE by each dose of drug was calculated by comparison with enzyme activity from 3 saline treated control mice run at the same time.
# [4] = system: mice, hypobaric hypoxic model; test: animal or person; assay type: in vivo; settings: for response vs control in vivo at 0.2 mg/kg: 0.2 mg/kg sc
# Description: A 12 liter desiccator (desiccator A) and a 2.5 liter desiccator (desiccator B) were separately connected to a vacuum pump. Desiccator B was disconnected and allowed to equilibrate with room air whilst desiccator A was evacuated to a pressure of 100 mmHg. Four male ICR albino mice (22-28 g) were placed in desiccator B. Desiccator B was then closed to room air and connected to desiccator A. The pressure inside desiccator B was monitored using a mercury manometer and at the point were the pressure in desiccator B reached 200 mmpg (usually within 14 seconds), the two desiccators were disconnected from the vacuum pump and the pump switched off. The survival time from the moment of induction of hypoxia to the time of cessation of respiration was recorded for each mouse for a maximum of 15 minutes after which time room air was reintroduced to desiccator B. Survivors were monitored for signs of lethargy or vitality.
# Effect of drug treatment was assessed as the percent of the survival time of the drug treated group with respect to the saline injected or vehicle injected control group. […] The effect of each dose of test drug was determined in duplicate i.e. two groups of 4 mice.
# Positive reference drugs were sodium pentobarbital at a dose of 40 mg/kg, and diazepam 10 mg/kg given 0.5 h prior to hypoxia, physostigmine 0.2 and 0.4 mg/kg and neostigmine 0.2 mg/kg given sc 30 min before hypoxia. Methyl atropine 1 mg/kg was given sc. 10 min. before physostigmine.
# Test drugs were dissolved in 0.9% saline, and injected sc. in the nip of the neck at a dose in accordance with body weight, 60-90 min. before hypoxia. The volume of injection was 0.2-0.3 mL per mouse (10 mL/kg). The initial dose was about one third of the reported LD50 for acetylcholine esterase inhibition. If no protection could be obtained, the dose was further increased to the nearest non-toxic dose. In case of protection, the dose was further reduced in an attempt to locate the “protective” dose range.
# [5] = read-out: AChE Inhibition In vitro IC50
# [6] = human erythrocyte AChE, at time of peak activity, read-out: AChE Inhibition In vitro IC50
# [7] = Mus musculus, 30 min before hypoxia, read-out: Protection (survival time)
# T4 sequence (P22303 32-617 isoform P22303-2 limits assumed): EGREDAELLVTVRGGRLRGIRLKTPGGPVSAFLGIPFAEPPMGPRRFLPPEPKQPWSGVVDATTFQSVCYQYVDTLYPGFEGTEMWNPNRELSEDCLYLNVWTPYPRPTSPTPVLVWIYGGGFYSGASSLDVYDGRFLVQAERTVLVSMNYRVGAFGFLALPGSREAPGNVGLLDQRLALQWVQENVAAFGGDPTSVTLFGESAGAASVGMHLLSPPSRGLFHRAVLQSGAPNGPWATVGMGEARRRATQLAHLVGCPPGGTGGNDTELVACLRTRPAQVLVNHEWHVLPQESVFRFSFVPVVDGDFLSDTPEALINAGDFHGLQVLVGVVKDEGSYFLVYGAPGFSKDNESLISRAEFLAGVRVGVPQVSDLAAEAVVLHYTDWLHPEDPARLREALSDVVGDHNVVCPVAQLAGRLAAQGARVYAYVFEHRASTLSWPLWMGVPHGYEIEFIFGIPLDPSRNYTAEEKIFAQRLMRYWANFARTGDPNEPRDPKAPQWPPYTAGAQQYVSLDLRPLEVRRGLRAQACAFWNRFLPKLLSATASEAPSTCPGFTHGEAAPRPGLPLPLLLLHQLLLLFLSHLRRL
compound,measurement,setting,value
"C#CCNC1CCc2ccc(OC(=O)N(C)C)cc21 (single isomer, unassigned) [Compound 54]",MAO-A Inhibition Ex vivo ED50,MAO-A [1],>100 µmol/kg
same,MAO-B Inhibition Ex vivo ED50,MAO-B,>100 µmol/kg
"C#CCNC1CCc2ccc(OC(=O)N(C)C)cc21 (single isomer, unassigned) [Compound 55]",MAO-A Inhibition Ex vivo ED50,MAO-A [1],>100 µmol/kg
same,MAO-B Inhibition Ex vivo ED50,MAO-B,>100 µmol/kg
CCCN(C)C(=O)Oc1ccc2c(c1)C(N)CC2 (stereo not drawn) [Compound 2],IC50,"MAO-A [2]; rat brain homogenate, read-out: MAO-A Inhibition In vitro IC50",32 µM
same,IC50,[3]; [5],7.3 µM
"CCN(C)C(=O)Oc1ccc2c(c1)C(N)CC2 (stereo not drawn) [Compound 3, 6-(N-Me,N-Et Carbamyloxy) aminoindan HCl]",IC50,"MAO-A [2]; MAO-A Inhibition In vitro IC50, rat brain homogenate",12.6 µM
same,Acute Toxicity LD50 (LD),mice,950 µmol/kg
same,AChE Inhibition Ex vivo ED50 (AC),whole brain AChE,46.3 µmol/kg
same,AChE Inhibition Time to peak activity t,"whole brain AChE; mouse, in vivo",60 to 90 min
same,AChE Inhibition Time to return to 50% of peak t,"whole brain AChE; mouse, in vivo",>180 min
CNC1CCc2cccc(OC(=O)N(C)C)c21 (stereo not drawn) [Compound 9],Acute Toxicity LD50 (LD),mice,93 µmol/kg
same,AChE Inhibition Ex vivo ED50 (AC),whole brain AChE,19 µmol/kg
same,AChE Inhibition Time to peak activity t,"whole brain AChE; mouse, in vivo",15 min
CN(C)C(=O)Oc1ccc2c(c1)C(N(C)C)CC2 (stereo not drawn) [Compound 12],response vs control in vivo at 7 mg/kg,"[4]; Mus musculus, sc, read-out: Protection (survival time), 7 mg/kg sc, 60 min before hypoxia",248 ± 97%
same,response vs control in vivo at 10 mg/kg,"[4]; Mus musculus, sc, read-out: Protection (survival time), 10 mg/kg sc, 60 min before hypoxia",386 ± 238%
same,response vs control in vivo at 15 mg/kg,"[4]; Mus musculus, sc, read-out: Protection (survival time), 15 mg/kg sc, 60 min before hypoxia",649 ± 221%
same,response vs control in vivo at 20 mg/kg,"[4]; Mus musculus, sc, read-out: Protection (survival time), 20 mg/kg sc, 60 min before hypoxia",725 ± 128%
same,Acute Toxicity LD50 (LD),mice,<20 µmol/kg
same,AChE Inhibition Ex vivo ED50 (AC),whole brain AChE,8.0 µmol/kg
same,AChE Inhibition Time to peak activity t,"whole brain AChE; mouse, in vivo",15 min
CN(C(=O)Oc1ccc2c(c1)C(N)CC2)C1CCCCC1 (stereo not drawn) [Compound 17],IC50,[3]; [5],4 µM
C#CCNC1CCc2cccc(OC(=O)N(C)CCC)c21 (stereo not drawn) [Compound 28],IC50,[3]; [6],100 µM
C#CCN(C)C1CCc2ccc(OC(=O)N(C)CC)cc21 (stereo not drawn) [Compound 30],IC50,[3]; [5],1300 µM
C#CCNC1CCc2ccc(OC(=O)NCC)cc21 (stereo not drawn) [Compound 56],AChE Inhibition Ex vivo ED50 (AC),whole brain AChE,180 µmol/kg
same,IC50,[3]; [6],11.5 µM
C#CCNC1CCc2ccc(OC(=O)N(C)CC)cc21 (stereo not drawn) [Compound 60],IC50,[3]; AChE Inhibition In vitro IC50,42 µM
C#CCNC1CCc2ccc(OC(=O)N(CC)CCCC)cc21 (stereo not drawn) [Compound 83],IC50,[3]; [6],80 µM
C#CCNC1CCc2ccc(OC(=O)N(CC)C3CCCCC3)cc21 (stereo not drawn) [Compound 85],AChE Inhibition Ex vivo ED50 (AC),whole brain AChE,>100 µmol/kg
same,IC50,[3]; [6],17 µM
C#CCNC1CCc2ccc(OC(=O)N(C)CCCC)cc21 (stereo not drawn) [Compound 86],IC50,[3]; [5],10.5 µM
C#CCNC1CCc2ccc(OC(=O)N(C)CCCC)cc21 (stereo not drawn) [Compound 87],IC50,[3]; [5],9.1 µM
CCCC(C)C1(CC)C(=O)N=C([O-])NC1=O.[Na+] (stereo not drawn) [Nembutal],Protection (survival time),"[4]; 40 mg/kg, 30 min before hypoxia",253 ± 200 % of control
"CN(C)C(=O)Oc1cccc([N+](C)(C)C)c1 [neostigmine, reference compound]",response vs control in vivo at 0.2 mg/kg,[4]; [7],141 ± 32%
"CNC(=O)Oc1ccc2c(c1)[C@]1(C)CCN(C)[C@@H]1N2C [physostigmine, reference compound]",response vs control in vivo at 0.2 mg/kg,[4]; [7],453 ± 222%
same,response vs control in vivo at 0.4 mg/kg,"[4]; Mus musculus, 0.4 mg/kg sc, 30 min before hypoxia, read-out: Protection (survival time)",552 ± 210%
